Assay in all cases: NCI anticancer screen, dose series, 48 h
Assay [1] relates to T-47D breast.
The test system of assay [2] is BT-549 breast.
Assay [3] relates to PC-3 prostate.
Assay [4] deals with MDA-N.

The structures appear in SMILES notation.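 Test compounds were applied to cells in 96-well plates for 48 hours at 5 doses. GI50 is the concentration that inhibits growth by half. Definition used: TGI = concentration required for complete inhibition of growth.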 Where only a bound is given, the exact number is not on record here.

Consider `COc1cc2c(/C=C3/C(=O)Nc4cccc(Cl)c43)c(Cl)n(Cc3ccccc3)c2cc1C`, for which the GI50 in assay [1] was 14 µM; in assay [2] it was 6.98 µM; in assay [3], 4.29 µM. The TGI in assay [1] was greater than 100 µM; in assay [2] it was 29.1 µM; in assay [3] it was greater than 38 µM.

With `CCCCNC(=O)NS(=O)(=O)c1ccc(N2N=C(c3ccc(C)cc3C)CC2c2ccc(N(C)C)cc2)cc1` (centres undefined), the GI50 in assay [1] was 5.16 µM; in assay [2], 4.11 µM; in assay [3] it was 3.34 µM. Further, the TGI in assay [1] was greater than 100 µM; in assay [2] it was 37.1 µM; in assay [3], greater than 100 µM.

Consider `NC(N)=NC(N)=Nc1cc2ccccc2c2ccccc12`, for which the values for the GI50 in assay [1], in assay [2] and in assay [3] were 11 µM, 10.5 µM and 7.51 µM, respectively. For the same compound, the TGI in assay [1] came out at 29.3 µM; in assay [2], 22.8 µM; in assay [3], 24.9 µM.

On to `CCOC(=O)c1c(C)n(Cc2ccc(OC)cc2)c2c1cc(O)c1[nH]c3c(c12)CCCC3`, for which the GI50 is 2.02 µM in assay [1], 4.21 µM in assay [2] and 2.86 µM in assay [3]. The TGI in assay [1] is 38.8 µM; in assay [2], 27.8 µM; in assay [3], 37.4 µM.

Turning to `CC(C)CSc1nc(Nc2ccccc2)c(C#N)c(-c2ccc(F)cc2)n1`, the results for the GI50 in assay [1], in assay [2] and in assay [3] were 2.97 µM, 7.24 µM and 18.1 µM, respectively. The results for the TGI in assay [1], in assay [2] and in assay [3] were 32.8 µM, 32.3 µM and 81.2 µM, respectively.

Consider `CCCCCCCCCCC(O)C1CCC(C2CCC(C(O)CCCCC(O)CCCCCC(O)CC3=CC(C)OC3=O)O2)O1` (centres undefined), for which the figures for the GI50 in assay [4], in assay [1] and in assay [3] were greater than 25 µM, 7.17 µM and 2.79 µM, respectively. Also, the TGI in assay [4], in assay [1], in assay [2] and in assay [3] was greater than 25 µM in each case.

Turning to `Cn1cc(-c2csc(-c3cccc(F)c3)n2)c2cccnc21`, the GI50 is 14.4 µM in assay [1], 20.9 µM in assay [2] and 16.2 µM in assay [3]. Besides, the figures for the TGI in assay [1], in assay [2] and in assay [3] were 51.7 µM, 56.1 µM and 39.5 µM, respectively.

`COc1ccc(-c2cc3c(nn2)-c2ccccc2C3=O)cc1`: the TGI is greater than 10 µM in assay [4], greater than 100 µM in assay [1], greater than 100 µM in assay [2] and greater than 100 µM in assay [3]. Also, the GI50 in assay [1], in assay [2] and in assay [3] was greater than 100 µM throughout.

Regarding `COc1ccc(S(=O)(=O)N(Cc2ccc3c(n2)C=CC(C)(C)O3)C2CCC2)cc1OC`, the GI50 in assay [1], in assay [2] and in assay [3] was less than 0.01 µM in each case. Besides, the TGI in assay [1] was 0.231 µM; in assay [2], 0.171 µM; in assay [3] it was 2.37 µM.

Turning to `CC(C)CC(N)C(=O)O` (centres undefined), the TGI in assay [4], in assay [1], in assay [2] and in assay [3] was greater than 100 µM in each case.

For the compound `N#C/C(C(=S)Nc1ccccc1)=C1/NN=C2c3ccccc3C(=O)NN21`, in assay [1], the GI50 is 36.7 µM and the TGI is greater than 100 µM. In assay [2], the GI50 was 24.3 µM and the TGI is 80 µM.

Turning to `O=C(O)c1cc(N=Nc2ccc([As](=O)(O)O)cc2)ccc1O`, the TGI in assay [4], in assay [1], in assay [2] and in assay [3] was greater than 100 µM each time.

For the compound `CCCCC/C=C/C/C=C/CCCCCCCC1=NC(C)(C)CN1C(C)C`, the GI50 in assay [1] is 1.97 µM; in assay [2], 5.84 µM; in assay [3] it was 1.7 µM. In addition, the TGI was found to be 3.98 µM in assay [1], 23 µM in assay [2] and 3.41 µM in assay [3].

On to `CCCCn1c(-c2ccc(C(=O)O/N=C(\N)c3ccc(OC)cc3)cc2)nc(-c2ccccc2)c1-c1ccccc1`, for which, in assay [1], the GI50 was 1.92 µM and the TGI amounted to 4.59 µM.

Regarding `CCCNC(=S)N/N=C(\C)c1ccccn1`, the GI50 in assay [1] was 0.0274 µM; in assay [2] it was 1.44 µM; in assay [3], 0.0471 µM. The TGI in assay [1], in assay [2] and in assay [3] was greater than 100 µM each time.

Regarding `CC[C@H](C)[C@H](NC(=O)[C@H]1CCCCN1C)C(=O)N(C)[C@H](CCc1nc(C(=O)N[C@@H](Cc2ccccc2)C[C@H](C)C(=O)OC)cs1)C(C)C`, in assay [2], the GI50 is 0.177 µM and the TGI stood at 2.48 µM. In assay [3], the GI50 is 0.375 µM and the TGI is greater than 25 µM.

Consider `O=C(O)C1C(C(=O)O)C(C(=O)O)C1C(=O)O` (centres undefined), for which the TGI in assay [4], in assay [1], in assay [2] and in assay [3] was greater than 100 µM throughout.

With `Cc1[nH]c(N=Nc2ccccc2)nc1N=Nc1ccccc1`, the figures for the GI50 in assay [1], in assay [2] and in assay [3] were 2.77 µM, 2.08 µM and 4.99 µM, respectively. Besides, the TGI in assay [1] is greater than 46.8 µM; in assay [2], 8.11 µM; in assay [3], greater than 51.6 µM.

Turning to `COc1cc2c3c(n(CCCCl)c(=O)c2cc1OC)-c1ccccc1C3=O`, the GI50 in assay [1], in assay [2] and in assay [3] was greater than 100 µM in each case. Also, the TGI in assay [1], in assay [2] and in assay [3] was greater than 100 µM throughout.

With `Cc1cc(C)cc(Nc2cc(C)nc3nc(C(F)(F)F)nn23)c1`, the GI50 was greater than 100 µM in assay [1], 39.6 µM in assay [2] and greater than 100 µM in assay [3]. In addition, the TGI in assay [1], in assay [2] and in assay [3] was greater than 100 µM throughout.

Turning to `COc1cc2c3c(n(CCCBr)c(=O)c2cc1OC)-c1ccc(NC(C)=O)cc1C3=O`, the GI50 in assay [1] is 1.84 µM; in assay [2], 8 µM; in assay [3], 24.8 µM. Besides, the TGI in assay [1] was greater than 100 µM; in assay [2], 34.7 µM; in assay [3], greater than 100 µM.

The values are drawn from PubChem BioAssay (NCI).
